According to US10165776B2, “Substituted pyrazolylpyrazole derivative and use of same as herbicide” (KYOYU AGRI CO., LTD., priority 2015, dated 2019):

What was measured:
Format in all cases: in vivo
Digitaria ciliaris [1] = assay: Weed foliar treatment test (Test 4, 4.0 to 5.0 leaf stage); conditions: 10 g a.i./10 a; foliar spray at 4.0 to 5.0 leaf stage of Digitaria ciliaris (plant height 10 cm to 15 cm); 20 days at 25° C.
Method: (§1) Field soil was filled into a 1/4500 are pot followed by seeding with Digitaria ciliaris and Galinsoga parviflora, covering with soil and cultivating in a glass greenhouse at an average atmospheric temperature of 25° C. Wettable powders of Target Compound (I) shown in Table 1 prepared in compliance with the preparation examples were diluted with water to the prescribed amount of chemical and uniformly sprayed onto the weeds using 100 liters of sprayed water per 10 are when Digitaria ciliaris had grown to the 4.0 to 5.0 leaf stage (plant height: 10 cm to 15 cm). After treating for 20 days in a glass greenhouse at an average atmospheric temperature of 25° C., the herbicidal efficacy thereof was investigated. Evaluation of herbicidal efficacy was carried out in the same manner as the above-mentioned Test Example 1.

Galinsoga parviflora = assay: as above; conditions: 10 g a.i./10 a; foliar spray at 4.0 to 5.0 leaf stage of Digitaria ciliaris (plant height 10 cm to 15 cm); 20 days at 25° C.
Method: as §1

Echinochloa crus-galli = assay: Paddy herbicidal activity test; conditions: irrigated pot, treated at 3.5 leaf stage of Echinochloa crus-galli, 30 days at 30° C.
Method: (§2) Rice paddy soil was filled into a 1/10000 are pot followed by the addition of suitable amounts of water and chemical fertilizer, kneading, seeding with Echinochloa crus-galli, Monochoria vaginalis and Scirpus juncoides and maintaining in an irrigated state at a water depth of 3 cm. Wettable powders of Target Compound (I) shown in Table 1 prepared in compliance with the preparation examples were diluted with a suitable amount of water, rice plants in the 2.0 leaf stage were transplanted during 3.5 leaf stage of Echinochloa crus-galli, and treated by dropping in chemical in the prescribed amount per 10 are using a pipette. After treating for 30 days in a glass greenhouse at an average atmospheric temperature of 30° C., the herbicidal efficacy thereof was investigated. Evaluation of herbicidal efficacy was carried out by comparing growth inhibition rate (%) with an untreated group, while evaluation of phytotoxicity was carried out by comparing growth inhibition rate (%) with the state of a complete eradication group, and were evaluated at 11 levels indicated below.

Monochoria vaginalis = assay: Paddy herbicidal activity test; conditions: irrigated pot, treated at 3.5 leaf stage of Echinochloa crus-galli, 30 days at 30° C.
Method: as §2

Scirpus juncoides = assay: Paddy herbicidal activity test; conditions: irrigated pot, treated at 3.5 leaf stage of Echinochloa crus-galli, 30 days at 30° C.
Method: as §2

Oryza sativa = assay: Paddy herbicidal activity test, phytotoxicity to transplanted rice; conditions: rice transplanted at 2.0 leaf stage, 30 days at 30° C.
Method: as §2

Amaranthus retroflexus [2] = assay: Farming soil treatment test; conditions: soil surface spray prior to weed growth, 30 days at 30° C.
Method: (§3) Field soil was filled into a 1/6000 are pot followed by seeding with Digitaria ciliaris, Chenopodium album and Amaranthus retroflexus and covering with soil. Wettable powders of compounds of formula (I) shown in Table 1 prepared in compliance with the preparation examples were diluted with water to the prescribed amount of chemical and uniformly sprayed onto each soil surface layer using 100 liters of sprayed water per 10 are prior to weed growth following seeding. After treating for 30 days in a glass greenhouse at an average atmospheric temperature of 30° C., the herbicidal efficacy thereof was investigated. Evaluation of herbicidal efficacy was carried out in the same manner as the above-mentioned Test Example 1.

Chenopodium album [3] = assay: Farming soil treatment test; conditions: soil surface spray prior to weed growth, 30 days at 30° C.
Method: as §3

Digitaria ciliaris [4] = assay: Farming soil treatment test; conditions: soil surface spray prior to weed growth, 30 days at 30° C.
Method: as §3

Amaranthus retroflexus [5] = assay: Weed foliar treatment test (Test 3, 1.0 to 2.0 leaf stage); conditions: foliar spray at 1.0 to 2.0 leaf stage of Digitaria ciliaris, 3 weeks at 25° C.
Method: (§4) Soil was filled into a 1/6000 are pot followed by seeding with Digitaria ciliaris, Chenopodium album and Amaranthus retroflexus, covering with soil, and cultivating in a glass greenhouse at an average atmospheric temperature of 25° C. Wettable powders of Target Compound (I) shown in Table 1 prepared in compliance with the preparation examples were diluted with water to the prescribed amount of chemical and uniformly sprayed onto the weeds using 150 liters of sprayed water per 10 are when Digitaria ciliaris had grown to the 1.0 to 2.0 leaf stage. After treating for 3 weeks in a glass greenhouse at an average atmospheric temperature of 25° C., the herbicidal efficacy thereof was investigated. Evaluation of herbicidal efficacy was carried out in the same manner as the above-mentioned Test Example 1.

Chenopodium album [6] = assay: as above; conditions: foliar spray at 1.0 to 2.0 leaf stage of Digitaria ciliaris, 3 weeks at 25° C.
Method: as §4

Digitaria ciliaris [7] = assay: as above; conditions: foliar spray at 1.0 to 2.0 leaf stage of Digitaria ciliaris, 3 weeks at 25° C.
Method: as §4

Compound	herbicidal efficacy, Digitaria ciliaris (Digitaria ciliaris [1])	herbicidal efficacy, Galinsoga parviflora (Galinsoga parviflora)	herbicidal efficacy, Echinochloa crus-galli (Echinochloa crus-galli; 1 g a.i./10 a)	herbicidal efficacy, Echinochloa crus-galli (Echinochloa crus-galli; 5 g a.i./10 a)	herbicidal efficacy, Monochoria vaginalis (Monochoria vaginalis; 1 g a.i./10 a)	herbicidal efficacy, Monochoria vaginalis (Monochoria vaginalis; 5 g a.i./10 a)	herbicidal efficacy, Scirpus juncoides (Scirpus juncoides; 1 g a.i./10 a)	herbicidal efficacy, Scirpus juncoides (Scirpus juncoides; 5 g a.i./10 a)	phytotoxicity, Oryza sativa (Oryza sativa; 1 g a.i./10 a)	phytotoxicity, Oryza sativa (Oryza sativa; 5 g a.i./10 a)	herbicidal efficacy, Amaranthus retroflexus (Amaranthus retroflexus [2]; 5 g a.i./10 a)	herbicidal efficacy, Amaranthus retroflexus (Amaranthus retroflexus [2]; 10 g a.i./10 a)	herbicidal efficacy, Chenopodium album (Chenopodium album [3]; 5 g a.i./10 a)	herbicidal efficacy, Chenopodium album (Chenopodium album [3]; 10 g a.i./10 a)	herbicidal efficacy, Digitaria ciliaris (Digitaria ciliaris [4]; 5 g a.i./10 a)	herbicidal efficacy, Digitaria ciliaris (Digitaria ciliaris [4]; 10 g a.i./10 a)	herbicidal efficacy, Amaranthus retroflexus (Amaranthus retroflexus [5]; 5 g a.i./10 a)	herbicidal efficacy, Amaranthus retroflexus (Amaranthus retroflexus [5]; 10 g a.i./10 a)	herbicidal efficacy, Chenopodium album (Chenopodium album [6]; 5 g a.i./10 a)	herbicidal efficacy, Chenopodium album (Chenopodium album [6]; 10 g a.i./10 a)	further results
N#Cc1cnn(-c2nn3c(c2Cl)CCCC3)c1NC(=O)Cc1ccc(C(F)(F)F)cc1 [Compound 17]	10 (10: 100%)	10 (10: 100%)	–	–	–	–	–	–	–	–	–	–	–	–	–	–	–	–	–	–	–
N#Cc1cnn(-c2nn3c(c2Cl)CCCC3)c1NC(=O)Cc1ccc(F)cc1 [Compound 15]	10 (10: 100%)	10 (10: 100%)	10 (10: 100%)	10 (10: 100%)	10 (10: 100%)	10 (10: 100%)	9 (9: 90% to less than 100%)	10 (10: 100%)	1 (1: 10% to less than 20%)	1 (1: 10% to less than 20%)	10 (10: 100%)	10 (10: 100%)	10 (10: 100%)	10 (10: 100%)	9 (9: 90% to less than 100%)	10 (10: 100%)	10 (10: 100%)	10 (10: 100%)	10 (10: 100%)	10 (10: 100%)	herbicidal efficacy, Digitaria ciliaris (Digitaria ciliaris [7]; 5 g a.i./10 a): 10 (10: 100%); herbicidal efficacy, Digitaria ciliaris (Digitaria ciliaris [7]; 10 g a.i./10 a): 10 (10: 100%)
N#Cc1cnn(-c2nn3c(c2Cl)CCCC3)c1NC(=O)c1ccccc1 [Control agent 4.192, reference compound]	0 (0 (exponent): 0% to less than 10% (growth inhibition rate))	2 (2: 20% to less than 30%)	4 (4: 40% to less than 50%)	4 (4: 40% to less than 50%)	1 (1: 10% to less than 20%)	2 (2: 20% to less than 30%)	3 (3: 30% to less than 40%)	4 (4: 40% to less than 50%)	1 (1: 10% to less than 20%)	1 (1: 10% to less than 20%)	0 (0 (exponent): 0% to less than 10% (growth inhibition rate))	1 (1: 10% to less than 20%)	2 (2: 20% to less than 30%)	3 (3: 30% to less than 40%)	0 (0 (exponent): 0% to less than 10% (growth inhibition rate))	2 (2: 20% to less than 30%)	3 (3: 30% to less than 40%)	4 (4: 40% to less than 50%)	4 (4: 40% to less than 50%)	5 (5: 50% to less than 60%)	herbicidal efficacy, Digitaria ciliaris (Digitaria ciliaris [7]; 5 g a.i./10 a): 1 (1: 10% to less than 20%); herbicidal efficacy, Digitaria ciliaris (Digitaria ciliaris [7]; 10 g a.i./10 a): 2 (2: 20% to less than 30%)
Cc1cccc(CC(=O)Nc2c(C#N)cnn2-c2nn3c(c2Cl)CCCC3)c1 [Compound 9]	10 (10: 100%)	10 (10: 100%)	9 (9: 90% to less than 100%)	9 (9: 90% to less than 100%)	9 (9: 90% to less than 100%)	10 (10: 100%)	9 (9: 90% to less than 100%)	9 (9: 90% to less than 100%)	0 (0 (exponent): 0% to less than 10% (growth inhibition rate))	0 (0 (exponent): 0% to less than 10% (growth inhibition rate))	9 (9: 90% to less than 100%)	10 (10: 100%)	9 (9: 90% to less than 100%)	10 (10: 100%)	9 (9: 90% to less than 100%)	9 (9: 90% to less than 100%)	10 (10: 100%)	10 (10: 100%)	10 (10: 100%)	10 (10: 100%)	herbicidal efficacy, Digitaria ciliaris (Digitaria ciliaris [7]; 5 g a.i./10 a): 10 (10: 100%); herbicidal efficacy, Digitaria ciliaris (Digitaria ciliaris [7]; 10 g a.i./10 a): 10 (10: 100%)
N#Cc1cnn(-c2nn3c(c2Br)CCCC3)c1NC(=O)Cc1ccccc1 [Compound 4]	10 (10: 100%)	10 (10: 100%)	–	–	–	–	–	–	–	–	–	–	–	–	–	–	–	–	–	–	–
COc1ccccc1CC(=O)Nc1c(C#N)cnn1-c1nn2c(c1Cl)CCCC2 [Compound 7]	10 (10: 100%)	10 (10: 100%)	–	–	–	–	–	–	–	–	–	–	–	–	–	–	–	–	–	–	–
N#Cc1cnn(-c2nn3c(c2Cl)CCCC3)c1NC(=O)Cc1ccc(Cl)cc1 [Compound 16]	10 (10: 100%)	10 (10: 100%)	–	–	–	–	–	–	–	–	–	–	–	–	–	–	–	–	–	–	–
